One test deals with M^pro (Severe acute respiratory syndrome coronavirus 2 (2019-nCoV) (SARS-CoV-2), UniProt P0DTD1). Type of test: binding. To be noted: steady-state analysis, 25° C.
Test [1] has as its target SARS-CoV-2 M^pro protease (Severe acute respiratory syndrome coronavirus 2 (2019-nCoV) (SARS-CoV-2), UniProt P0DTD1). Nature of the test: biochemical. Type of test: biochemical. To be noted: M^pro 75 nM, substrate 10 μM.

By Kd is commonly meant a measure of binding affinity in units of concentration. Lower therefore signals a tighter complex. Usually IC50 stands for the concentration that gives 50% inhibition. High values mean lower potency, low ones higher potency. In the case of `O=C1NC2(CC(c3ccccc3Cl)C2)C(=O)N1c1cncc2c(F)c(F)c(F)cc12` (single isomer, unassigned) [Compound 59, 2-(2-chlorophenyl)-7-(6,7,8-trifluoroisoquinolin-4-yl)-5,7-diazaspiro[3.4]octane-6,8-dione], the Kd on M^pro worked out at 250 nM. This compound also returned an IC50 in test [1] (Tables 5B-5E) of 6600 nM.
Turning to `O=C1NC2(CC(c3ccccc3Cl)C2)C(=O)N1c1cncc2c(F)c(F)c(F)cc12` (single isomer, unassigned) [Compound 60, 2-(2-chlorophenyl)-7-(6,7,8-trifluoroisoquinolin-4-yl)-5,7-diazaspiro[3.4]octane-6,8-dione], the Kd on M^pro was 364 nM. It took 1370 nM to reach half-maximal inhibition in test [1] (Tables 5B-5E) (IC50).
`O=C1NC2(CC(C3CCC3)C2)C(=O)N1c1cncc(F)c1` (stereo not shown) [Compound 13, 2-cyclobutyl-7-(5-fluoropyridin-3-yl)-5,7-diazaspiro[3.4]octane-6,8-dione] yielded a Kd at M^pro of 66000 ± 14000 nM. This compound also came in with an IC50 in test [1] (Table 5A) of 6700 nM.
Turning to `O=C1NC2(CC(c3ccccc3Cl)C2)C(=O)N1c1cncc2cccnc12` (stereo not shown) [Compound 50, 2-(2-chlorophenyl)-7-(1,6-naphthyridin-8-yl)-5,7-diazaspiro[3.4]octane-6,8-dione], the affinity at M^pro, expressed as Kd, was 28 nM. This compound showed an IC50 in test [1] (Tables 5B-5E) of 105 nM.
In turn, `O=C1NC2(CC(c3ccccc3Cl)C2)C(=O)N1c1cncc2cnccc12` (stereo not shown) [Compound 51, 2-(2-chlorophenyl)-7-(2,7-naphthyridin-4-yl)-5,7-diazaspiro[3.4]octane-6,8-dione] registered a Kd on M^pro of 29 nM. This compound also gave an IC50 in test [1] (Tables 5B-5E) of 141 nM.
As to `O=C1NC2(CC(c3ccccc3Cl)C2)C(=O)N1c1cncc2nccnc12` (stereo not shown) [Compound 52, 2-(2-chlorophenyl)-7-(pyrido[3,4-b]pyrazin-8-yl)-5,7-diazaspiro[3.4]octane-6,8-dione], binding on M^pro was put at a Kd of 134 nM. Further, half-maximal inhibition in test [1] (Tables 5B-5E) (IC50) was put at 394 nM.
The matching figures for `O=C1NC2(CC(c3ccccc3Cl)C2)C(=O)N1c1cncc2cccc(F)c12` (stereo not shown) [Compound 53, 2-(2-chlorophenyl)-7-(5-fluoroisoquinolin-4-yl)-5,7-diazaspiro[3.4]octane-6,8-dione]: 42 nM and 253 nM.
On M^pro, `O=C1NC2(CC(c3ccccc3Cl)C2)C(=O)N1c1cccnc1F` (stereo not shown) [Compound 62, 2-(2-chlorophenyl)-7-(2-fluoropyridin-3-yl)-5,7-diazaspiro[3.4]octane-6,8-dione] came in with a Kd of 36 nM. The IC50 in test [1] (Tables 5B-5E) was determined as 201 nM.
`CC(C)c1ccncc1N1C(=O)NC2(CC(c3ccccc3Cl)C2)C1=O` (stereo not shown) [Compound 63, 2-(2-chlorophenyl)-7-(4-isopropylpyridin-3-yl)-5,7-diazaspiro[3.4]octane-6,8-dione] showed a Kd on M^pro of 89 nM.
Compound `CN(C)c1cncc(N2C(=O)NC3(CC(c4ccccc4Cl)C3)C2=O)c1` (stereo not shown) [Compound 65, 2-(2-chlorophenyl)-7-(5-(dimethylamino)pyridin-3-yl)-5,7-diazaspiro[3.4]octane-6,8-dione] displayed a Kd on M^pro of 790 nM. Compared with the last compound, the Kd is about 8.9-fold higher.
For `O=C1NC2(CC(c3ccccc3Cl)C2)C(=O)N1c1cncnc1` (stereo not shown) [Compound 66, 2-(2-chlorophenyl)-7-(pyrimidin-5-yl)-5,7-diazaspiro[3.4]octane-6,8-dione], the Kd at M^pro is 691 nM.

The values above are taken from US20240208970A1, “SUBSTITUTED HYDANTOIN COMPOUNDS, METHODS FOR PREPARATION THEREOF AND USE THEREOF IN THE TREATMENT AND/OR PREVENTION OF A CORONA VIRUS DISEASE” (priority 2021, published 2024).
